From the NIST ThermoML archive (doi:10.1016/j.jct.2013.07.002)
Numbers after ± are expanded uncertainties.

Conditions: 101.33 kPa, Liquid; for viscosity: Concentric cylinders viscometry; for thermal conductivity: Hot wire method

OCCO [1,2-ethanediol]
Conditions | thermal conductivity [W/m/K] | viscosity [mPa·s]
283.15 K | 0.243 ± 0.015 | 35.44 ± 3.6
288.15 K | – | 28 ± 2.8
293.15 K | – | 21.89 ± 2.2
298.15 K | – | 17.25 ± 1.7
303.15 K | 0.246 ± 0.015 | 13.86 ± 1.4
308.15 K | – | 11.64 ± 1.2
313.15 K | – | 9.62 ± 0.97
323.15 K | 0.249 ± 0.015 | 7.21 ± 0.72
343.15 K | 0.259 ± 0.016 | –
